Test system: UGT1A7 gene
Assay: Association of UGT1A7 polymorphisms with liver function abnormality in tolcapone-treated patients (case-control genotyping)
Format: in vivo, human
Text: Disease severity had already been controlled for by the original study inclusion criteria.
For all other single nucleotide polymorphisms (SNPs) discovery and genotyping was done by double-stranded DNA sequencing using an ABI capillary sequencer and Big Dye chemistry (ABI). The primers used to amplify all exons are shown below and were also used as sequencing primers. Publicly available genomic sequences were used as references for primer design. All polymorphisms were targeted with these pairs-of-primer sets:
Fourty nanograms of genomic DNA were PCR-amplified in 50 μl reactions using an automated PCR machine. Reaction conditions varied as follows. For the amplification of the UGT1A6-fragment conditions were as follows: 10 mM Tris pH 8.3, 50 mM KCl, 1.5 mM MgCl2, 0.2 mM of each dNTP, 0.4 μM of each primer and 1.5U Boehringer Taq Polymerase. The thermocycling protocol consisted of an initial incubation of 95° C. for 15 min. followed by 35 cycles of 94° C. for 1 min., 57° C. for 30 sec., 72° C. for 1 min., and one final extension step of 72° C. for 10 min. The UGT1A7-1 fragment was amplified using Qiagen PCR buffer with 1.5 mM MgCl2, 0.2 mM of each dNTP, 0.4 μM of each primer and 1.5U Boehringer Taq Polymerase. The thermocycling protocol was the same as for UGT1A6-fragment with one exception: the annealing temperature was 61° C. For UGT1A7-2 fragment PCR conditions were as follows: 150 mM Tris pH 8.5, 15 mM (NH4)2SO4, 3.5 mM MgCl2, 0.2 mM of each dNTP, 0.4 μM of each primer and 1.5U Qiagen Hot Start Taq Polymerase. Thermocycling was done using a touch-down PCR protocol. After an iniatial amplification of 95° C. for 10 min. followed 5 cycles of 95° C. for 1 min., 62° C. for 30 sec. (minus 0.5° C. per cycle), 72° C. for 1 min and thirty cycles of 95° C. for 1 min., 60° C. for 30 sec., 72° C. for 1 min. and a final extension step of 72° C. for 10 min. After PCR amplification fragments were purified using the Qiaquick PCR purification kit on a Biorobot 9600. Cycle sequencing was performed on an automated PCR machine using ABI Big Dye terminator chemistry according to the manufacturer's intruction with the following changes: 2.5-5 ng/100 bp of PCR product were mixed with 2 μl Big Dye terminatior mix, oligonucleotide primer concentration was 10 pmol, if necessary 5% DMSO was added to the reaction; the final reaction volume was 10 μl. Sequencing reactions were subjected to 28 cycles at 93° C. for 30 sec, 48° C. for 30 sec, and 58° C. for 120 sec., followed by an ethanol/NaOAc precipitation. After decanting the ethanol, samples were evaporated to dryness using a SpeedVac for 2 min. and were resuspended in 45 μl ultrapure water (MERCK, HPLC grade). […] were loaded on an ABI 3700 capillary sequencer using POP5 as a polymer. After sequencing, the polymorphism analyses were done using Polyphred software (licenced from University of Washington).
The patient samples were divided into two groups.
For each genotype, the following analyses were performed:
a) Analysis of the entire genotype: patients were classified according to the following three categories: homozygous 1/1 (two copies of allele 1 and no copies of allele 2), heterozygous 1/2 (one copy of allele 1 and one copy of allele 2) or homozygous 2/2 (no copies of allele 1 and two copies of allele 2). Analysis was conducted to assess whether there were differences in the proportion of case patients in each of these groups, compared with the proportion of control patients. The Cochran-Maentel-Hanszel (CMH) test was applied to the data presented in a 2-by-3 table (the two columns indicating presence or absence of liver function abnormality and the three rows indicating the three categories of the genotype).

n (%) of patients (UGT1A7_197 C/G, Allele A Absent, Liver Function Abnormality Absent): 125 (46.5%)
n (%) of patients (UGT1A7_197 C/G, Allele A Absent, Liver Function Abnormality Present): 46 (34.6%)
n (%) of patients (UGT1A7_197 C/G, Allele A Present, Liver Function Abnormality Absent): 144 (53.5%)
n (%) of patients (UGT1A7_197 C/G, Allele A Present, Liver Function Abnormality Present): 87 (65.4%)
n (%) of patients (UGT1A7_197 C/G, Allele C Absent, Liver Function Abnormality Absent): 32 (11.9%)
n (%) of patients (UGT1A7_197 C/G, Allele C Absent, Liver Function Abnormality Present): 25 (18.8%)
n (%) of patients (UGT1A7_197 C/G, Allele C Present, Liver Function Abnormality Absent): 237 (88.1%)
n (%) of patients (UGT1A7_197 C/G, Allele C Present, Liver Function Abnormality Present): 108 (81.2%)
n (%) of patients (UGT1A7_197 C/G, Genotype Heterozygous A/C, Liver Function Abnormality Absent): 112 (41.6%)
n (%) of patients (UGT1A7_197 C/G, Genotype Heterozygous A/C, Liver Function Abnormality Present): 62 (46.6%)
n (%) of patients (UGT1A7_197 C/G, Genotype Homozygous A/A, Liver Function Abnormality Absent): 32 (11.9%)
n (%) of patients (UGT1A7_197 C/G, Genotype Homozygous A/A, Liver Function Abnormality Present): 25 (18.8%)
n (%) of patients (UGT1A7_197 C/G, Genotype Homozygous C/C, Liver Function Abnormality Absent): 125 (46.5%)
n (%) of patients (UGT1A7_197 C/G, Genotype Homozygous C/C, Liver Function Abnormality Present): 46 (34.6%)
n (%) of patients (UGT1A7_551 Asn129Lys, Allele G Absent, Liver Function Abnormality Absent): 49 (18.2%)
n (%) of patients (UGT1A7_551 Asn129Lys, Allele G Absent, Liver Function Abnormality Present): 14 (10.6%)
n (%) of patients (UGT1A7_551 Asn129Lys, Allele G Present, Liver Function Abnormality Absent): 220 (81.8%)
n (%) of patients (UGT1A7_551 Asn129Lys, Allele G Present, Liver Function Abnormality Present): 118 (89.4%)
n (%) of patients (UGT1A7_551 Asn129Lys, Allele T Absent, Liver Function Abnormality Absent): 96 (35.7%)
n (%) of patients (UGT1A7_551 Asn129Lys, Allele T Absent, Liver Function Abnormality Present): 59 (44.7%)
n (%) of patients (UGT1A7_551 Asn129Lys, Allele T Present, Liver Function Abnormality Absent): 173 (64.3%)
n (%) of patients (UGT1A7_551 Asn129Lys, Genotype Heterozygous G/T, Liver Function Abnormality Absent): 124 (46.1%)
n (%) of patients (UGT1A7_551 Asn129Lys, Genotype Heterozygous G/T, Liver Function Abnormality Present): 59 (44.7%)
n (%) of patients (UGT1A7_551 Asn129Lys, Genotype Homozygous G/G, Liver Function Abnormality Absent): 96 (35.7%)
n (%) of patients (UGT1A7_551 Asn129Lys, Genotype Homozygous G/G, Liver Function Abnormality Present): 59 (44.7%)
n (%) of patients (UGT1A7_551 Asn129Lys, Genotype Homozygous T/T, Liver Function Abnormality Absent): 49 (18.2%)
n (%) of patients (UGT1A7_551 Asn129Lys, Genotype Homozygous T/T, Liver Function Abnormality Present): 14 (10.6%)
n (%) of patients (UGT1A7_555 silent or Arg131Lys, Allele A Absent, Liver Function Abnormality Absent): 49 (18.2%)
n (%) of patients (UGT1A7_555 silent or Arg131Lys, Allele A Absent, Liver Function Abnormality Present): 14 (10.6%)
n (%) of patients (UGT1A7_555 silent or Arg131Lys, Allele A Present, Liver Function Abnormality Absent): 220 (81.8%)
n (%) of patients (UGT1A7_555 silent or Arg131Lys, Allele A Present, Liver Function Abnormality Present): 118 (89.4%)
n (%) of patients (UGT1A7_555 silent or Arg131Lys, Allele C Absent, Liver Function Abnormality Absent): 96 (35.7%)
n (%) of patients (UGT1A7_555 silent or Arg131Lys, Allele C Absent, Liver Function Abnormality Present): 58 (43.9%)
n (%) of patients (UGT1A7_555 silent or Arg131Lys, Allele C Present, Liver Function Abnormality Absent): 173 (64.3%)
n (%) of patients (UGT1A7_555 silent or Arg131Lys, Allele C Present, Liver Function Abnormality Present): 74 (56.1%)
Structure (SMILES): Cc1ccc(C(=O)c2cc(O)c(O)c([N+](=O)[O-])c2)cc1 [tolcapone]

Reference: US20040076968A1, “Method for detecting pre-disposition to hepatotoxicity” (priority 2000, published 2004)
